Reference: ChEMBL document CHEMBL4673375, “Discovery of a series of 1H-pyrrolo[2,3-b]pyridine compounds as potent TNIK inhibitors” (Bioorg Med Chem Lett, 2021)
Active and inactive are the calls of the source. No cut-off for these calls is given here.

Legend:
[1] = target: T1, TRAF2 and NCK-interacting protein kinase (Homo sapiens, UniProt Q9UKE5); assay: Inhibition of TNIK (unknown origin)
Target sequence in this assay (Q9UKE5 whole entry): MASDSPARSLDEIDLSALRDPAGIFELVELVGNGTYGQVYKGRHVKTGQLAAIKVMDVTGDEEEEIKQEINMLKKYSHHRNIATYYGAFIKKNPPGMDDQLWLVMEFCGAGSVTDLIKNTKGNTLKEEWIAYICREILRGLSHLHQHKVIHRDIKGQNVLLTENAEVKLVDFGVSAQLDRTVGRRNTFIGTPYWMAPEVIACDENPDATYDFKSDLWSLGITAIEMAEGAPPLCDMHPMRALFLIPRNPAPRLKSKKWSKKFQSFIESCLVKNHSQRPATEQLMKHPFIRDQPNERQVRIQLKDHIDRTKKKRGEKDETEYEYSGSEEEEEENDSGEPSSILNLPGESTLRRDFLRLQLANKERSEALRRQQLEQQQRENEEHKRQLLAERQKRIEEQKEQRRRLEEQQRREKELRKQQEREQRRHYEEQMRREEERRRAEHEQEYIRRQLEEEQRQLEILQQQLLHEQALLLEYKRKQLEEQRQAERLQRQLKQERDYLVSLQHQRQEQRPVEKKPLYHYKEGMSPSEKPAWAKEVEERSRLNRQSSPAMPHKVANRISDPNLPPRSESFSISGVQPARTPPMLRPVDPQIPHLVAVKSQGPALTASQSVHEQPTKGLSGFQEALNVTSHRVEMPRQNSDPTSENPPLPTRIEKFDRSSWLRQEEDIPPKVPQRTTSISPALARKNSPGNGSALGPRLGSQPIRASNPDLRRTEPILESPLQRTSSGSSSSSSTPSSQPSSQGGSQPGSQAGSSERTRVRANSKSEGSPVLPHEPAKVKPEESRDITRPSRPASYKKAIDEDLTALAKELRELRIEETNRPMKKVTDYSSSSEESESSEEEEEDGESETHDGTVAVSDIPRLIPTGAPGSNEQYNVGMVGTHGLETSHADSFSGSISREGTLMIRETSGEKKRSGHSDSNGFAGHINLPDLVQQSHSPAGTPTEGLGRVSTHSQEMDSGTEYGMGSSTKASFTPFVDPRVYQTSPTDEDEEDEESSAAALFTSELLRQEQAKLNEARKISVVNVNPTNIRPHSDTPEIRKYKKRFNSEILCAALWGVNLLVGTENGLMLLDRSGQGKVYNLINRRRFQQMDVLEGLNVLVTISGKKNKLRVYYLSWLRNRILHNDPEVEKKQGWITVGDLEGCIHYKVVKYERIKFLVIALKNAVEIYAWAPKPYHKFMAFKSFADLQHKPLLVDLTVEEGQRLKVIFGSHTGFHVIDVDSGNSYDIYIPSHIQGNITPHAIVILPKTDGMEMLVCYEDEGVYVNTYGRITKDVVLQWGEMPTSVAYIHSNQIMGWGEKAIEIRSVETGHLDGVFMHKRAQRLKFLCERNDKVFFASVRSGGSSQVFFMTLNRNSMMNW

[2] = target: T1, TRAF2 and NCK-interacting protein kinase; assay: Inhibition of TNIK in PMA/anti-CD3 antibody-stimulated human Jurkat cells assessed as IL2 level at 10 uM incubated for 24 hrs by ELISA; assay type: cell-based
Target sequence in this assay (Q9UKE5 whole entry, looked up): as the sequence (Q9UKE5 whole entry) above

[3] = target: T1, TRAF2 and NCK-interacting protein kinase; assay: Inhibition of TNIK in human Jurkat cells assessed as reduction in PMA/anti-CD3 antibody-induced IL2 level incubated for 24 hrs by ELISA; assay type: cell-based; settings: dose 1-10 µM
Target sequence in this assay (Q9UKE5 whole entry, looked up): as the sequence (Q9UKE5 whole entry) above

[4] = target: T1, TRAF2 and NCK-interacting protein kinase; assay: Inhibition of TNIK in human Jurkat cells assessed as reduction in PMA/anti-CD3 antibody-induced IL2 secretion at 1 uM incubated for 24 hrs by ELISA; assay type: cell-based
Target sequence in this assay (Q9UKE5 whole entry, looked up): as the sequence (Q9UKE5 whole entry) above

| Structure (SMILES) | IC50 [1] | also measured |
| --- | --- | --- |
| CN(C)C1CCN(C(=O)c2cccc(-c3cnc4[nH]cc(-c5cc(C#N)cc(NS(C)(=O)=O)c5)c4c3)c2)C1 (stereo not drawn) | 0.22 nM |  |
| c1ccc(-c2cnc3[nH]cc(-c4ccccc4)c3c2)cc1 | 9.2 nM |  |
| CNC(=O)c1cccc(-c2cnc3[nH]cc(-c4cc(C#N)c(Cl)c(NS(C)(=O)=O)c4)c3c2)c1 | 0.3 nM |  |
| CN1CCN(Cc2ccc(-c3cnc4[nH]cc(-c5ccc(F)cc5)c4c3)cc2)CC1 | 19 nM |  |
| CN1CCN(Cc2ccc(-c3cnc4[nH]cc(-c5cccc6ccccc56)c4c3)cc2)CC1 | 31 nM |  |
| CN1CCN(Cc2ccc(-c3cnc4[nH]cc(-c5cccc(N)c5)c4c3)cc2)CC1 | 15 nM |  |
| CN1CCN(Cc2ccc(-c3cnc4[nH]cc(-c5cc(C#N)cc(NS(=O)(=O)C6CC6)c5)c4c3)cc2)CC1 | 0.19 nM | Activity [2]: < 25 pg/mL; inhibition [3]: Dose-dependent effect |
| CN1CCN(Cc2ccc(-c3cnc4[nH]cc(-c5ccc(Cl)cc5)c4c3)cc2)CC1 | 14 nM |  |
| CC(C)(C(=O)O)c1ccc(-c2cnc3[nH]cc(-c4cc(C#N)cc(NS(C)(=O)=O)c4)c3c2)cc1 | 0.47 nM | inhibition [3]: Dose-dependent effect |
| CN1CCN(Cc2ccc(-c3cnc4[nH]cc(-c5cc(C#N)cc(NS(C)(=O)=O)c5)c4c3)cc2)CC1 | 0.13 nM | Activity [2]: < 25 pg/mL; inhibition [3]: Dose-dependent effect |
| CN1CCN(Cc2ccc(-c3cnc4[nH]cc(-c5cccc(C#N)c5)c4c3)cc2)CC1 | 0.91 nM |  |
| CNC(=O)c1cccc(-c2cnc3[nH]cc(-c4cc(C#N)cc(NS(C)(=O)=O)c4)c3c2)c1 | 0.18 nM |  |
| CN1CCN(C(=O)c2cccc(-c3cnc4[nH]cc(-c5cc(C#N)cc(NS(C)(=O)=O)c5)c4c3)c2)CC1 | 0.25 nM |  |
| CN1CCN(Cc2ccc(-c3cnc4[nH]cc(-c5ccc(NS(C)(=O)=O)cc5)c4c3)cc2)CC1 | 18 nM |  |
| CN1CCN(Cc2ccc(-c3cnc4[nH]cc(-c5cccc(C(=O)N(C)C)c5)c4c3)cc2)CC1 | 43 nM |  |
| CN1CCN(C(=O)c2ccc(-c3cnc4[nH]cc(-c5cc(C#N)cc(NS(C)(=O)=O)c5)c4c3)cc2)CC1 | 0.21 nM |  |

| Structure (SMILES) | IC50 [1] | also measured |
| --- | --- | --- |
| CC(=O)Nc1cccc(-c2c[nH]c3ncc(-c4ccc(CN5CCN(C)CC5)cc4)cc23)c1 | 12 nM |  |
| CN1CCN(Cc2ccc(-c3cnc4[nH]cc(-c5cccc(NS(C)(=O)=O)c5)c4c3)cc2)CC1 | 7.1 nM |  |
| CN1CCN(Cc2ccc(-c3cnc4[nH]cc(-c5cnc6[nH]ncc6c5)c4c3)cc2)CC1 | 7.9 nM |  |
| CN1CCC(n2cc(-c3cnc4[nH]cc(-c5cc(C#N)c(Cl)c(NS(C)(=O)=O)c5)c4c3)cn2)CC1 | 0.68 nM | Activity [2]: < 25 pg/mL; inhibition [3]: Dose-dependent effect |
| CN1CCN(Cc2ccc(-c3cnc4[nH]cc(-c5cc(C#N)c6[nH]ncc6c5)c4c3)cc2)CC1 | 0.23 nM | inhibition [4]: inactive; Activity [2]: < 25 pg/mL |
| CN1CCN(Cc2ccc(-c3cnc4[nH]cc(-c5ccc6[nH]ncc6c5)c4c3)cc2)CC1 | 0.44 nM |  |
| Cn1cc(-c2ccc(-c3cnc4[nH]cc(-c5cc(C#N)cc(NS(C)(=O)=O)c5)c4c3)cc2)cn1 | 0.8 nM |  |
| CN1CCN(Cc2ccc(-c3cnc4[nH]cc(-c5cc(C#N)c(Cl)c(NS(C)(=O)=O)c5)c4c3)cc2)CC1 | 0.43 nM | inhibition [3]: Dose-dependent effect |
| CS(=O)(=O)Nc1cc(C#N)cc(-c2c[nH]c3ncc(-c4cccc(C(=O)NC5CC5)c4)cc23)c1 | 0.12 nM |  |
| CNC(=O)c1cccc(-c2c[nH]c3ncc(-c4ccc(CN5CCN(C)CC5)cc4)cc23)c1 | 27 nM |  |
| CC(C)(Oc1ccc(-c2cnc3[nH]cc(-c4cc(C#N)cc(NS(C)(=O)=O)c4)c3c2)cc1)C(=O)O | 0.33 nM | inhibition [3]: Dose-dependent effect |
| CS(=O)(=O)Nc1cc(C#N)cc(-c2c[nH]c3ncc(-c4cccc(C(=O)N5CCCCC5)c4)cc23)c1 | 0.22 nM |  |
| CN1CCN(Cc2ccc(-c3cnc4[nH]cc(-c5ccc6[nH]cnc6c5)c4c3)cc2)CC1 | 3.8 nM |  |
| CS(=O)(=O)Nc1cc(C#N)cc(-c2c[nH]c3ncc(-c4cccc(C(=O)N5CCCC5)c4)cc23)c1 | 0.21 nM |  |
| CN1CCN(Cc2ccc(-c3cnc4[nH]cc(-c5ccccc5)c4c3)cc2)CC1 | 14 nM |  |
| CN1CCN(Cc2ccc(-c3cnc4[nH]cc(-c5ccc6[nH]ccc6c5)c4c3)cc2)CC1 | 5.2 nM |  |
